Patent publication US10676429B2, “Sulfamoyl-arylamides and the use thereof as medicaments for the treatment of hepatitis B” (priority 2012, dated 2020)

Columns and labels:
HBV = experiment: Anti-HBV activity in HepG2.117 cell line (Tet-off, intracellular HBV DNA, realtime PCR); format: cell-based; conditions: Hepatitis B virus, HepG2.117, 72 h, HepG2.117 cells, 3 days of treatment, intracellular HBV DNA; read-out: HepG2 117 EC50
[1] = Cytotoxicity in HepG2 cells, 4 days, Resazurin assay; conditions: human, HepG2 cells

Row | Structure (SMILES) | EC50 (HBV) | CC50 at 4 days [1]
1 | Cc1ccc(S(=O)(=O)NC2(C)COC2)c(F)c1C(=O)Nc1cc(F)c(F)c(Cl)c1 [Compound 192] | 190 nM | > 25000 nM
2 | Cc1ccc(S(=O)(=O)N[C@H](C)C(F)(F)F)c(F)c1C(=O)Nc1cc(F)c(F)c(Cl)c1 [Compound 193] | 100 nM | 13500 nM
3 | Cc1cc(NC(=O)c2c(F)ccc(S(=O)(=O)N[C@H]3CCOC3)c2F)ccc1F [Compound 197] | 90 nM | > 25000 nM
4 | O=C(Nc1ccc(F)c(Br)c1)c1c(F)ccc(S(=O)(=O)N[C@H]2CCOC2)c1F [Compound 198] | 150 nM | > 25000 nM
5 | N#Cc1cc(NC(=O)c2c(F)ccc(S(=O)(=O)N[C@H]3CCOC3)c2F)ccc1F [Compound 199] | 430 nM | > 25000 nM
6 | O=C(Nc1ccc(F)c(C(F)(F)F)c1)c1c(F)ccc(S(=O)(=O)N[C@H]2CCOC2)c1F [Compound 200] | 450 nM | > 25000 nM
7 | CC(C)NS(=O)(=O)c1ccc(F)c(C(=O)Nc2ccc(F)c(F)c2)c1F [Compound 202] | 110 nM | > 25000 nM
8 | CC(C)NS(=O)(=O)c1ccc(F)c(C(=O)Nc2cccc(C(F)(F)F)c2)c1F [Compound 203] | 240 nM | 16700 nM
9 | Cc1cc(NC(=O)c2c(C)ccc(S(=O)(=O)NC3(C)COC3)c2F)ccc1F [Compound 204] | 90 nM | > 25000 nM
10 | Cc1cc(NC(=O)c2c(C)ccc(S(=O)(=O)NC(C)(C)C)c2F)ccc1F [Compound 205] | 350 nM | > 25000 nM
11 | Cc1ccc(S(=O)(=O)NC(C)(C)C)c(F)c1C(=O)Nc1ccc(F)c(F)c1 [Compound 206] | 640 nM | > 25000 nM
12 | CC1(NS(=O)(=O)c2ccc(Cl)c(C(=O)Nc3ccc(F)c(C#N)c3)c2F)COC1 [Compound 207] | > 1000 nM | > 25000 nM
13 | CC1(NS(=O)(=O)c2ccc(Cl)c(C(=O)Nc3ccc(F)c(C(F)(F)F)c3)c2F)COC1 [Compound 208] | > 1000 nM | > 25000 nM
14 | Cc1cc(NC(=O)c2c(Cl)ccc(S(=O)(=O)NC3(C)COC3)c2F)cc(F)c1F [Compound 209] | 150 nM | > 25000 nM
15 | CC1(NS(=O)(=O)c2ccc(Cl)c(C(=O)Nc3cc(F)c(F)c(Cl)c3)c2F)COC1 [Compound 210] | 460 nM | > 25000 nM
16 | CC1(NS(=O)(=O)c2ccc(F)c(C(=O)Nc3ccc(F)c(F)c3)c2Cl)COC1 [Compound 211] | 650 nM | > 25000 nM
17 | CC1(NS(=O)(=O)c2ccc(F)c(C(=O)Nc3ccc(F)c(C(F)(F)F)c3)c2Br)COC1 [Compound 212] | 7300 nM | > 25000 nM
18 | Cc1cc(NC(=O)c2c(Br)ccc(S(=O)(=O)NC3(C)COC3)c2F)ccc1F [Compound 213] | 280 nM | > 25000 nM
19 | CC1(NS(=O)(=O)c2ccc(Br)c(C(=O)Nc3ccc(F)c(C#N)c3)c2F)COC1 [Compound 214] | > 1000 nM | > 25000 nM
20 | CC1(NS(=O)(=O)c2ccc(Br)c(C(=O)Nc3ccc(F)c(C(F)(F)F)c3)c2F)COC1 [Compound 215] | > 1000 nM | > 25000 nM
21 | Cc1cc(NC(=O)c2c(Br)ccc(S(=O)(=O)NC3(C)COC3)c2F)cc(F)c1F [Compound 216] | 290 nM | > 25000 nM
22 | CC1(NS(=O)(=O)c2cccc(C(=O)Nc3ccc(F)c(C(F)(F)F)c3)c2F)COC1 [Compound 219] | 460 nM | > 25000 nM
23 | Cc1cc(NC(=O)c2cccc(S(=O)(=O)NC(C)(C)C)c2F)ccc1F [Compound 221] | 130 nM | > 25000 nM
24 | Cc1cc(NC(=O)c2cccc(S(=O)(=O)NC3(C)CCOC3)c2)ccc1F (centres unmarked) [Compound 223] | 210 nM | > 25000 nM
25 | Cc1cc(NC(=O)c2cc(S(=O)(=O)NC3(C)COC3)ccc2Cl)ccc1F [Compound 232] | 310 nM | > 25000 nM
